This note sets out measurements from PMC6934184, “Selective DNA-PKcs inhibition extends the therapeutic index of localized radiotherapy and chemotherapy” (The Journal of Clinical Investigation, 2019).

The target in this assay is T1, CSF1R (FMS) (Homo sapiens, UniProt P07333).
T1 construct: purchased Thermo Fisher Scientific (Life Technologies) SelectScreen
Briefly: SelectScreen Z'LYTE. Format: biochemical. In short, it runs like this:
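Compound tested in SelectScreen activity assays, Z'LYTE for CSF1R, CDK1/cyclin B and MAP2K6 and Adapta for CAMK1. ATP for CAMK1 was listed as 10, and Km app was used for CSF1R. Results are expressed in percent.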

T1 sequence (P07333 20-972): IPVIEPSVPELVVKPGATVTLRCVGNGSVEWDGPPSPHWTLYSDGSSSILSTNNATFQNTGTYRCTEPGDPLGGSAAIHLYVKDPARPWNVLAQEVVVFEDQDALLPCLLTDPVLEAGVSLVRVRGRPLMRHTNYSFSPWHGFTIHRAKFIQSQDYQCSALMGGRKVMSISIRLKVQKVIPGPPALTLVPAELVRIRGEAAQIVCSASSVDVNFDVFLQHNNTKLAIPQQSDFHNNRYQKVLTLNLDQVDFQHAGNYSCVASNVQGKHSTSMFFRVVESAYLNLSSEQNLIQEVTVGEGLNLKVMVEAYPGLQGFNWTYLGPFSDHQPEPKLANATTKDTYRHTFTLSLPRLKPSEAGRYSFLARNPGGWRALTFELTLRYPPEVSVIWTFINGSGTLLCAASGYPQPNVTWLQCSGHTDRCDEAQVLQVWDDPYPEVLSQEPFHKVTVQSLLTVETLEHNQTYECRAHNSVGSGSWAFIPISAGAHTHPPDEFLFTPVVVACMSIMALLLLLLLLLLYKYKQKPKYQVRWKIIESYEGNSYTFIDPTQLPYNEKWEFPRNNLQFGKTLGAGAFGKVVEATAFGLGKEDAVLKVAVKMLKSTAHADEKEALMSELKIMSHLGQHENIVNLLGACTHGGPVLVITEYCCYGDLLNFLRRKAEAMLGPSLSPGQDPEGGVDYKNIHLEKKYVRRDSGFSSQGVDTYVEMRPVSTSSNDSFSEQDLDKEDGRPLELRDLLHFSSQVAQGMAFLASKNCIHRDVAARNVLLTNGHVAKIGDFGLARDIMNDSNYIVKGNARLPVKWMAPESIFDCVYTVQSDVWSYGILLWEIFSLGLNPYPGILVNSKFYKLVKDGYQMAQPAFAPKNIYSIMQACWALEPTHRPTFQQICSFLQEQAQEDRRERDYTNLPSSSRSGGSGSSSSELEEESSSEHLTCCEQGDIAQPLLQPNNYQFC

For the molecule `CN(C(=O)CN1CCOCC1)c1ccc2sc3c(-c4cccc5c(=O)cc(N6CC7CCC(C6)O7)oc45)cccc3c2c1` [NU5455], 1 µM produced 4.3% inhibition.

As a reminder, the inhibition is the change of the read-out against control, counted positive when it falls. A higher inhibition goes with a response far below the control.
